{
  "source": "paper PMC8485325",
  "about": "“Penetrating the Blood-Brain Barrier with New Peptide–Porphyrin Conjugates Having anti-HIV Activity” (Bioconjugate Chemistry, 2021)",
  "key": {"[1]": {"tested_on": "HIV-1NL4-3", "experiment": "In vitro inhibition of HIV-1NL4-3 infection of TZM-bl cells (luciferase reporter)", "format": "cell-based", "conditions": "for IC50: TZM-bl cells; for HIV inhibition (in words): in vitro, absence of photoactivation", "protocol": "Viral supernatants harvested from pNL4-3-transfected HEK293T cells were titered through the Reed-Muench method[56] based on HIV-1NL4–3 infectivity against TZM-bl cell cultures. TZM-bl cells were seeded at 2 × 10^4 cells/well in tissue culture-treated 96-well microplates from Corning (Corning, NY, USA), and incubated for 24 h. Cells were then incubated with 2-fold serial dilutions of viral supernatants for 3 h, after which the supernatant was replaced with fresh complete medium. After 45 h, TZM-bl cell infection was quantified through luciferase reporter-gene expression levels, under the control of an HIV-1 TAT-dependent LTR promoter[57] using the Luc-Screen luciferase chemiluminescence detection system. Luminescence was measured in an Infinite M200 microplate reader from Tecan (Männedorf, Switzerland). […] Titration was performed with at least four replicates to allow accurate estimation of TCID50 in viral supernatants.\nThe inhibitory activity of conjugates on HIV-1NL4–3 entry into TZM-bl cells was evaluated as previously described.[58] TZM-bl cells were seeded at 2 × 10^4 cells/well in tissue culture-treated 96-well microplates and incubated for 24 h. HIV-1NL4–3 viral supernatants (100 or 10 TCID50/well) were then incubated for 1 h with 2-fold serial dilutions of either nonconjugated peptide and porphyrins or conjugates, after which the infection mixture was added to TZM-bl cells. Untreated cells (in the absence of peptide–porphyrin conjugate) were used as control. Virions were incubated with cells for 3 h, after which cells were washed to remove unbound virions and new medium was added. After 45 h, infection was quantified by the Luc-Screen chemiluminescence assay. Measurements were performed in an Infinite M200 microplate reader. […] At least three independent experiments were performed for each assay."}, "[2]": {"tested_on": "TZM-bl cells", "format": "cell-based", "protocol": "TZM-bl Cell Viability Studies\nThe cytotoxic effects of each PPC on TZM-bl cell cultures were assessed to ensure that HIV inhibition was a result of the compounds effect on the virus and not on the host cells used in the assay. A resazurin reduction fluorometric assay was performed. Resazurin, the active compound in alamarBlue®, is a blue dye that can be reduced to a pink fluorescent intermediate, resorufin, as a result of cell metabolic activity.6 TZM-bl cells were seeded at 2x10^4 cells/well in tissue culture-treated 96-well microplates and incubated for 24 h. Cells were then incubated with serial dilutions (2-fold) of single peptide and porphyrins, or PPC, for 3 h, after which the mixture was replaced with fresh complete medium. Untreated cells (in the absence of peptide-porphyrin combinations) were used as a control. After 42 h, media was replaced with alamarBlue® reagent and incubated for an additional 3 h. Resazurin reduction was quantified by resorufin fluorescent emission intensity, measured in an Infinite M200 microplate reader. Fluorescence emission intensity was collected at 590 nm, using a fixed λ exc of 560 nm. Excitation and emission slits were 9 and 20 nm, respectively. Cell viability was calculated through the following formalism: […]\nwhere I EI corresponds to the resorufin fluorescence emission intensity in the presence of EIs or combination, I control to the fluorescence emission intensity in the absence of EIs and I background to the background fluorescence emission from the non-reduced […]\nP5, P4-MP, MP-L-P3 and P4-L-M - are presented here.\nTZM-bl cell viability on the concentration range tested.\n(1 picture or pasted object on this page, not shown here)\nFigure S7. PPCs cytotoxic effects against TZM-bl cells. A resazurin reduction fluorometric assay, dependent on the cell metabolic activity, was used. Cell viability, normalized to the control in the absence of PPC, was measured against three concentrations of each individual PPC: MP-P3 (black), MP-P5 (white), P4-MP (red), MP-L-P3 (blue) and P4-L-MP (green)."}, "[3]": {"tested_on": "bEnd.3 cells", "experiment": "Cell viability assay (CellTiter-Blue)", "format": "cell-based, murine", "protocol": "bEnd.3 cells were plated in fibronectin precoated 96-well flat-bottom clear black polystyrene plate (Corning, New York, USA) as previously described. Cells were then cultured in complete medium at 37 °C in a 5% CO2 atmosphere, with medium replaced every 2 days. […] Viability was evaluated by the CellTiter-Blue assay (Promega, Wisconsin, USA), based on resazurin reduction into highly fluorescent resorufin by metabolically active cells. By distinguishing metabolic from nonmetabolic cells, cytotoxicity can be indirectly determined. After incubation, cells were washed with PBS, pH 7.4, and 15 μL of CellTiterBlue reagent in 100 μL of complete medium was added to the cells and incubated for 1.5 h at 37 °C in 5% CO2. Fluorescence was measured at 590 nm, with excitation at 560 nm, using an Infinite F200 plate reader (Tecan, Switzerland). Complete medium and medium containing 0.25% Triton X-100 were used as positive and negative controls (100% and 0% viability), respectively. Cell viability (%) was determined using the following equation: [drawing 5] 5 where […] is the fluorescence emission of conjugate-treated cells, Fnontreated is the fluorescence emission of the control nontreated cells, and Fblank is the fluorescent emission of CellTiter reagent in complete medium without cells."}, "[4]": {"tested_on": "bEnd.3 cell monolayers", "protocol": "Figure 4 PPCs translocation across a bEnd.3 in vitro BBB model. (A) bEnd.3 in vitro BBB model transwell system. The insert, or apex, corresponds to the blood side, while the base (bottom chamber) corresponds to the brain side. (B) After formation of a monolayer, 10 μM of each conjugate was added to the apical side of the tissue culture inserts. After incubation for 24 h, samples from the basolateral side were collected, and the percentage of translocation of each conjugate (black) was calculated. FD4 permeability (gray) was measured to determine monolayer integrity post-PPCs translocation.\nAfter 24 h incubation with conjugates, an in vitro integrity assay was performed.[19] Briefly, cells were washed twice with PBS and once with DMEM medium without phenol red. Then, previously diluted 4 kDa fluorescein isothiocyanate-dextran (FD4) (Sigma-Aldrich, Spain) in DMEM without phenol red to an absorbance of 0.1 was added to the apical side and incubated for 2 h. Samples were collected from the apical and basolateral side, and fluorescence intensity was measured with λext = 493 nm and λem = 520 nm, using a Varioskan Lux plate reader. The integrity of the barrier was determined as follows: [drawing 2] 2 where Fi is the recovered fluorescence intensity, Fcells is the recovered fluorescence intensity from cells without FD4 incubation, FFD4 is the fluorescence intensity of total FD4 initially added to the transwell apical side, and FMedium is the fluorescence intensity of DMEM medium without phenol red."}, "[5]": {"conditions": "10 TCDI50 per well (approximate physiological conditions of HIV brain infection), read-out: IC50 HIV inhibition, 10 TCDI50"}, "[6]": {"conditions": "100 TCDI50 per well, no-light, read-out: IC50 HIV inhibition, 100 TCDI50"}},
  "note": "Like-named read-outs stand apart in the source and are kept apart here. Ends that are not written are not given here.",
  "data": [
    {"substance": "MP-P5: mesoporphyrin IX coupled to the N-terminal amino group of peptide P5 (SGTQEEY-amide) ({mesoporphyrin IX}-SGTQEEY-NH2)", "values": [
      {"measurement": "IC50", "setting": "[1]; [5]", "result": "10 ± 2.9", "unit": "µM"},
      {"measurement": "IC50", "setting": "[1]; [6]", "result": "33.1 ± 1.38", "unit": "µM"},
      {"measurement": "HIV inhibition (in words)", "setting": "[1]", "result": "inhibit HIV in vitro"},
      {"measurement": "TZM-bl cell viability (in words)", "setting": "[2]", "result": "did not alter significantly"},
      {"measurement": "CC50", "setting": "[3]", "result": "> 50", "unit": "µM"},
      {"measurement": "% Base (RFI), FD4 Permeability (monolayer integrity post-translocation)", "setting": "[4]", "result": 9.4, "unit": "%"}
    ]},
    {"substance": "P4-MP: mesoporphyrin IX coupled to the C-terminal Lys side chain of peptide P4 (AGILKRWK-amide) (AGILKRWK(mesoporphyrin IX)-NH2)", "values": [
      {"measurement": "IC50", "setting": "[1]; [5]", "result": "5.77 ± 1.17", "unit": "µM"},
      {"measurement": "IC50", "setting": "[1]; [6]", "result": "34 ± 1.25", "unit": "µM"},
      {"measurement": "HIV inhibition (in words)", "setting": "[1]", "result": "inhibit HIV in vitro"},
      {"measurement": "TZM-bl cell viability (in words)", "setting": "[2]", "result": "did not alter significantly"},
      {"measurement": "CC50", "setting": "[3]", "result": "> 50", "unit": "µM"},
      {"measurement": "% Base (RFI), FD4 Permeability (monolayer integrity post-translocation)", "setting": "[4]", "result": 15.3, "unit": "%"}
    ]}
  ]
}
